In patent US20260297080A1, “BICYCLIC COMPOUNDS AS CDK INHIBITORS” (BeOne Medicines I GmbH, priority 2022, published 2026) one finds IC50 data, which are given here for 9 compounds.

The target of one assay is CDK1/Cyclin B1 (Homo sapiens, UniProt P06493). The experiment in a line: CDK1/Cyclin B1 Biochemical Assay (TR-FRET), 0.015 mM ATP. The note with it: 0.15 μM Rb (Ser780)-biotin substrate, pH7.0, 60 min preincubation, 120 min reaction, room temperature. In outline: (§1)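 TR-FRET readout: 665/620 nm ratio from Eu-cryptate anti-pRb(Ser780) antibody plus streptavidin-XL665, converted to % inhibition and fitted (4-parameter logistic) for IC50. Reactions used 0.15 μM biotinylated Rb (Ser780) substrate, compound 0–10 μM, 60 min enzyme–compound preincubation, then 120 min reaction at room temperature.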
Chain of CDK1/Cyclin B1 (P06493 whole entry): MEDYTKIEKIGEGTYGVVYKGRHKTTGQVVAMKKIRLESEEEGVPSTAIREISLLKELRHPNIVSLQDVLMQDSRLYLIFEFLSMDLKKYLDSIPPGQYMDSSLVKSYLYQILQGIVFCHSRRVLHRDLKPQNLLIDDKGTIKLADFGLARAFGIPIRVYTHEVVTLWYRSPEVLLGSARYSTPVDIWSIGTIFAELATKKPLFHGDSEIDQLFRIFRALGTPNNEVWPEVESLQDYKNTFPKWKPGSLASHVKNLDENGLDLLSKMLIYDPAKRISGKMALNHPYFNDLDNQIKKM
Chain of CDK1/Cyclin B1 (P14635 whole entry partner): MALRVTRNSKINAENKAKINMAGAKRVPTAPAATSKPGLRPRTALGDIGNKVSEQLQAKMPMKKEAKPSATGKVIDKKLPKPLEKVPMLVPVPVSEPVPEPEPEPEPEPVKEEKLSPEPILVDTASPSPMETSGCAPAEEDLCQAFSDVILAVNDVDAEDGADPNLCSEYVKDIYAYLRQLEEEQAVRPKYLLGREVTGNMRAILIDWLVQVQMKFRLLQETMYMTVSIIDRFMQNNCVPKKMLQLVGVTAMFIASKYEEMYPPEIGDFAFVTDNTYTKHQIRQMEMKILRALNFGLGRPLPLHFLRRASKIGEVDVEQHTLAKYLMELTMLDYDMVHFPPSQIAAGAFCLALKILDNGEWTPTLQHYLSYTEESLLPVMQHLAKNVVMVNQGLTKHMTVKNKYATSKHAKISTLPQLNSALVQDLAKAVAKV
(TR-FRET usually uses a lanthanide donor and a delayed reading to cut background.)

The target in the next assay is CDK2/Cyclin E1 (Homo sapiens, UniProt P24941). Put plainly: CDK2/Cyclin E1 Biochemical Assay (TR-FRET), 0.060 mM ATP. The conditions noted are these: 0.15 μM Rb (Ser780)-biotin substrate, pH7.0, 60 min preincubation, 120 min reaction, room temperature. In outline:
as §1

Consider `O=C(O[C@H]1CC[C@@H](c2cc(Nc3ccc4c(c3)CS(=O)(=O)N4)n[nH]2)C1)N1CCOCC1` (relative stereo) [Example 382, cis-3-(3-((2,2-dioxido-1,3-dihydrobenzo[c]isothiazol-5-yl)amino)-1H-pyrazol-5-yl)cyclopentyl morpholine-4-carboxylate], for which the IC50 (commonly the point on the concentration scale where inhibition reaches its midpoint) was 214 nM against CDK1/Cyclin B1 and 9.7 nM against CDK2/Cyclin E1.
For `O=C(NC1(CO)CCC1)O[C@H]1CC[C@@H](c2cc(Nc3ccc4c(c3F)CNS4(=O)=O)n[nH]2)C1` (relative stereo) [Example 385, cis-3-(3-((4-fluoro-1,1-dioxido-2,3-dihydrobenzo[d]isothiazol-5-yl)amino)-1H-pyrazol-5-yl)cyclopentyl(1-(hydroxymethyl)cyclobutyl)carbamate], the IC50 at CDK1/Cyclin B1 was determined as 138 nM; at CDK2/Cyclin E1, 1.9 nM.
With `CN1c2ccc(Nc3cc([C@@H]4CC[C@H](OC(=O)NC5(CO)CCC5)C4)[nH]n3)cc2CS1(=O)=O` (relative stereo) [Example 386, cis-3-(3-((1-methyl-2,2-dioxido-1,3-dihydrobenzo[c]isothiazol-5-yl)amino)-1H-pyrazol-5-yl)cyclopentyl(1-(hydroxymethyl)cyclobutyl)carbamate], the half-maximal inhibitory concentration (IC50) came to 28 nM on CDK1/Cyclin B1 and 1 nM against CDK2/Cyclin E1.
As to `CC(C)NC(=O)O[C@H]1CC[C@@H](c2cc(Nc3ccc4c(c3F)CS(=O)(=O)N4CCCO)n[nH]2)C1` (relative stereo) [Example 389, cis-3-(3-((4-fluoro-1-(3-hydroxypropyl)-2,2-dioxido-1,3-dihydrobenzo[c]isothiazol-5-yl)amino)-1H-pyrazol-5-yl)cyclopentyl isopropylcarbamate], the figures for the half-inhibitory concentration (IC50) at CDK1/Cyclin B1 and at CDK2/Cyclin E1 were 74 nM and 1.3 nM, respectively.
As to `CC1(NC(=O)O[C@H]2CC[C@@H](c3cc(Nc4ccc5c(c4F)CS(=O)(=O)N5CCO)n[nH]3)C2)COC1` (relative stereo) [Example 390, cis-3-(3-((4-fluoro-1-(2-hydroxyethyl)-2,2-dioxido-1,3-dihydrobenzo[c]isothiazol-5-yl)amino)-1H-pyrazol-5-yl)cyclopentyl(3-methyloxetan-3-yl)carbamate], the 50% inhibitory concentration (IC50) worked out at 236 nM against CDK1/Cyclin B1 and 2.5 nM against CDK2/Cyclin E1.
As for `CC1(NC(=O)O[C@H]2CC[C@@H](c3cc(Nc4ccc5c(c4)CS(=O)(=O)N5)n[nH]3)C2)CCOC1` (relative stereo) [Example 392, cis-3-(3-((2,2-dioxido-1,3-dihydrobenzo[c]isothiazol-5-yl)amino)-1H-pyrazol-5-yl)cyclopentyl(3-methyltetrahydrofuran-3-yl)carbamate], the concentration for half-maximal inhibition (IC50) is 10 nM against CDK1/Cyclin B1 and 1.1 nM on CDK2/Cyclin E1.
As for `CC1(NC(=O)O[C@H]2CC[C@@H](c3cc(Nc4ccc5c(c4F)CS(=O)(=O)N5CCO)n[nH]3)C2)CCOC1` (relative stereo) [Example 393, cis-3-(3-((4-fluoro-1-(2-hydroxyethyl)-2,2-dioxido-1,3-dihydrobenzo[c]isothiazol-5-yl)amino)-1H-pyrazol-5-yl)cyclopentyl(3-methyltetrahydrofuran-3-yl)carbamate], the half-maximal inhibitory concentration (IC50) on CDK1/Cyclin B1 came out at 119 nM; against CDK2/Cyclin E1, 1.9 nM.
Regarding `COCC(C)(C)NC(=O)O[C@H]1CC[C@@H](c2cc(Nc3ccc4c(c3F)CS(=O)(=O)N4CCO)n[nH]2)C1` (relative stereo) [Example 394, cis-3-(3-((4-fluoro-1-(2-hydroxyethyl)-2,2-dioxido-1,3-dihydrobenzo[c]isothiazol-5-yl)amino)-1H-pyrazol-5-yl)cyclopentyl(1-methoxy-2-methylpropan-2-yl)carbamate], the 50% inhibitory concentration (IC50) on CDK1/Cyclin B1 was found to be 45 nM; on CDK2/Cyclin E1 it was 1.1 nM.
For `Cc1nc2c(cc1Nc1cc([C@@H]3CC[C@H](OC(=O)NC(C)C)C3)[nH]n1)CNS2(=O)=O` (relative stereo) [Example 396, cis-3-(3-((6-methyl-1,1-dioxido-2,3-dihydroisothiazolo[5,4-b]pyridin-5-yl)amino)-1H-pyrazol-5-yl)cyclopentyl isopropylcarbamate], the IC50 was 760 nM at CDK1/Cyclin B1 and 9.7 nM against CDK2/Cyclin E1.
